Laboratory results taken from PubChem BioAssay (NCI).
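These data come from cells grown in 96-well plates and exposed to compound for 48 hours at five concentrations. GI50 marks 50% less growth. The concentration for full growth arrest is given as TGI.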 Where a SMILES comes first, the peptide text is derived from it. The star is where a group is joined. Trt = c1ccc(C(c2ccccc2)(c2ccccc2)*)cc1; Cbz = O=C(OCc1ccccc1)*

Columns and labels:
Assay in all cases: inhibition of tumour cell growth, NCI panel, 48 h
MALME-3M melanoma = tested on: MALME-3M melanoma
RPMI-8226 leukemia = tested on: RPMI-8226 leukemia
MCF7 breast = tested on: MCF7 breast
LOX IMVI melanoma = tested on: LOX IMVI melanoma
TK-10 renal = tested on: TK-10 renal
PC-3 prostate = tested on: PC-3 prostate
UACC-62 melanoma = tested on: UACC-62 melanoma
UACC-257 melanoma = tested on: UACC-257 melanoma
SNB-75 CNS = tested on: SNB-75 CNS
EKVX NSCLC = tested on: EKVX NSCLC

Row | Structure (SMILES) | GI50 (MALME-3M melanoma) | TGI (MALME-3M melanoma) | GI50 (RPMI-8226 leukemia) | TGI (RPMI-8226 leukemia) | GI50 (MCF7 breast) | TGI (MCF7 breast) | GI50 (LOX IMVI melanoma) | TGI (LOX IMVI melanoma) | GI50 (TK-10 renal) | TGI (TK-10 renal) | GI50 (PC-3 prostate) | TGI (PC-3 prostate) | GI50 (UACC-62 melanoma) | TGI (UACC-62 melanoma) | GI50 (UACC-257 melanoma) | TGI (UACC-257 melanoma) | GI50 (SNB-75 CNS) | TGI (SNB-75 CNS) | GI50 (EKVX NSCLC) | TGI (EKVX NSCLC)
1 | COc1cccc2c1cc1c3c(cc4c(c32)OCO4)C(=O)N1 | 6.5 µM | > 100 µM | 5.29 µM | > 100 µM | 2.96 µM | 11.1 µM | 4.27 µM | 23.3 µM | 2.27 µM | 6.27 µM | 3.55 µM | 24.4 µM | 4.65 µM | > 100 µM | 27.3 µM | > 100 µM | 2.4 µM | 11.1 µM |  | 
2 | O=C(Nc1cccc(C(F)(F)F)c1)c1cc2ccccc2cc1O | 1.15 µM | 6.74 µM | 0.354 µM | 2.15 µM | 0.708 µM | > 43.6 µM | 1.92 µM | 14.3 µM | 3.97 µM | > 41.4 µM | 1.93 µM | > 25.6 µM | 0.835 µM | > 46.1 µM | 2.97 µM | > 24.7 µM | 2.25 µM | > 39.7 µM | 1.87 µM | 7.69 µM
3 | Cc1ccc(-c2n[nH]c(=O)c3noc(-c4ccc(C)cc4)c23)cc1 | 1.09 µM | 23.4 µM | 0.616 µM | > 100 µM | 0.565 µM | > 100 µM | 0.677 µM | > 100 µM | 2.35 µM | 14.2 µM | 2.07 µM | > 100 µM | 0.718 µM | 56.5 µM | 5.87 µM | > 100 µM |  |  |  | 
4 | N#C/C(=C\c1ccc2[nH]ccc2c1)C(=O)c1ccc(O)c(O)c1 |  | > 100 µM |  | > 100 µM |  | > 100 µM |  | > 100 µM |  | > 100 µM |  | > 100 µM |  | > 100 µM |  | > 100 µM |  | > 100 µM |  | > 100 µM
5 | COC(=O)C(CSC(c1ccccc1)(c1ccccc1)c1ccccc1)NC(=O)C(CC(N)=O)NC(=O)OCc1ccccc1 (stereo not drawn) (Cbz-Asn-Cys(Trt)-OMe; configuration not given here) | 2.21 µM | 12.1 µM | 2.29 µM | 5.93 µM | 4.54 µM | 27.4 µM | 1.83 µM | 3.51 µM | 5.69 µM | 26.8 µM | 3.57 µM | 17.2 µM | 3.15 µM | 14.1 µM | 8.92 µM | 21.7 µM | 5.43 µM | 24.6 µM | 4.15 µM | 25.5 µM
6 | COc1ccc(C(=O)c2cc3c(N)c(C(=O)Nc4cccc(OC)c4)sc3nc2C)cc1 | 0.593 µM | > 100 µM | 0.39 µM |  | 0.42 µM | > 100 µM | 0.676 µM | > 100 µM | > 100 µM | > 100 µM | 0.439 µM | > 100 µM | 0.594 µM | > 100 µM | > 100 µM | > 100 µM | 0.541 µM | > 100 µM | 0.997 µM | > 100 µM
7 | O=S(=O)(O)SCCNCCCCCC1CCCCC1 |  | 36.2 µM |  | 42.1 µM |  | 7.32 µM |  | 4.78 µM |  | 20.7 µM |  | 22.7 µM |  | 4.22 µM |  | 19.5 µM |  | 16.3 µM |  | 22.9 µM
8 | O=C(/C=C/c1ccc([N+](=O)[O-])cc1)c1cccc(Nc2nc(Nc3ccccc3)nc(Nc3ccccc3)n2)c1 | 38.8 µM | > 100 µM | 1.66 µM | 6.31 µM | 1.19 µM | 4.21 µM | 11.1 µM | 44.6 µM | 54.3 µM | > 100 µM | 3.15 µM | 30.7 µM | 21.7 µM | > 100 µM | 68.7 µM | > 100 µM | 4.52 µM | 94.8 µM | 22.3 µM | > 100 µM
9 | CCCCCCCCCCCCCCCCOCC(O)CO (stereo not given) |  | 36.1 µM |  | 37.4 µM |  | 38.1 µM |  | 33.4 µM |  | 28.9 µM |  | 37.8 µM |  | 35.2 µM |  | 35.7 µM |  |  |  | 36.3 µM
10 | NNC(=O)C(O)C(O)C(=O)NN (stereo not given) |  | > 100 µM |  | > 100 µM |  | > 100 µM |  | > 100 µM |  | > 100 µM |  | > 100 µM |  | > 100 µM |  | > 100 µM |  | > 100 µM |  | > 100 µM
11 | Cc1c(Cl)cccc1NC(=O)c1sc2nc3c(cc2c1N)CCCC3 | 0.571 µM | > 100 µM | 1.61 µM | > 100 µM | 0.274 µM | > 100 µM | 0.576 µM | > 100 µM | > 100 µM | > 100 µM | 1.11 µM | > 100 µM | 0.6 µM | > 100 µM | 0.688 µM | > 100 µM | 0.282 µM | > 66.1 µM | 0.64 µM | > 100 µM
12 | O=C(CCCCCCCCC(=O)N/N=C\c1cc(Cl)ccc1O)N/N=C\c1cc(Cl)ccc1O | 0.462 µM | > 100 µM | 0.847 µM | > 100 µM | 0.364 µM | > 100 µM | 0.149 µM | 7.41 µM | 3.89 µM | > 75.5 µM | 0.864 µM | > 100 µM | 0.235 µM |  | 0.306 µM |  | 15.6 µM | > 65.9 µM | 3.49 µM | > 100 µM
13 | CN1CCN(c2ccc3nc(-c4ccc(OCCCCN5CCN(CCCCN6C(=O)c7cccc8cccc(c78)C6=O)CC5)cc4)[nH]c3c2)CC1 | 20.9 µM | 42.6 µM | 33.9 µM | > 100 µM | 74.7 µM | > 100 µM | 37.3 µM | > 100 µM | 37.4 µM | > 100 µM | 69.3 µM | > 100 µM | 40.7 µM | > 100 µM | 30.3 µM | 74.7 µM | 28.9 µM | > 100 µM | > 100 µM | > 100 µM
14 | COc1cc(/C=N/NC(=O)c2ccccc2Nc2cccc(C(F)(F)F)c2)cc(OC)c1OC | 1.75 µM | 8.45 µM | 0.754 µM | > 22.7 µM | 1.57 µM | 6.86 µM | 4.55 µM | 15.4 µM | 2.36 µM | 8.74 µM | 3.34 µM | > 28.1 µM | 3.66 µM | 11.6 µM | 4.36 µM | 15.4 µM | 1.54 µM | 10.4 µM | 3.08 µM | 19.5 µM
